Assay results published in patent US20140378551A1, “Composition for the Prophylactic Treatment of Neuropathic Pain” (Universite d'Auvergne, priority 2011, published 2014).
Counter-ions that a name gives are not always drawn.

Assays:
[1] = doses of 5 to 30 mg memantine hydrochloride (Sang et al., 2002); cited from earlier work
[2] = test system: mechanical hyperalgesia induced by diabetes; experiment: Chronic intrathecal treatment, mechanical hyperalgesia induced by diabetes; type: in vivo; settings: chronic treatment administered intrathecally
Excerpt: (§1) It is relatively better tolerated by patients.

[3] = test system: Tyr^1472 residue of the NR2B sub-unit of the NMDA receptor; experiment: Chronic intrathecal treatment, phosphorylation of Tyr1472 residue in diabetes pain context; type: in vivo; settings: chronic treatment administered intrathecally
Excerpt: as §1

Compound	tolerance by patients [1]	mechanical hyperalgesia induced by diabetes [2]	phosphorylation of the Tyr1472 residue [3]
CC12CC3CC(C)(C1)CC(N)(C3)C2 [memantine hydrochloride]	well supported and tolerated by the patients		
CC(C)(C)n1nc(-c2ccc(Cl)cc2)c2c(N)ncnc21 [PP2, 4-amino-5-(4-chlorophenyl)-7-(dimethylethyl) pyrazolo [3,4-d] pyrimidine]		abolishes the mechanical hyperalgesia induced by diabetes	reduces phosphorylation of the Tyr^1472 residue
